Where “and” joins values, the source holds several entries; their conditions need not be identical. Identical values can stand only once. Counter-ions that a name gives are not always drawn. Like-named read-outs stand apart in the source and are kept apart here.
Columns and labels:
postoperative patients = details: cited from earlier work
[1] = in vivo, cited from earlier work
Beagle dogs = details: in vivo
[2] = system: patients undergoing abdominal surgery; details: both groups; cited from earlier work
[3] = in vitro and in vivo; cited from earlier work
[4] = cited from earlier work
[5] = system: patients undergoing TKA or THA; assay: Example 2: open label study of Tramadol IV in Total knee Arthroplasty or Total Hip Arthroplasty; details: for PAIN Intensity Difference, Mean score (SD): 100 mg IV; for Time to first demand of rescue medication after the first dose of Tramadol, Mean: hydrochloride
[6] = oral administration; cited from earlier work
rats and dogs = details: repeat-dose; cited from earlier work
in vivo = details: beagle, dog; for AUC(0-t) / Cmax: 26 mg/kg/day
[7] = tramadol […] [100 mg] p.o., single dose; cited from earlier work
mice and rats = details: cited from earlier work
[8] = system: experienced opioid abusers; details: cited from earlier work

COc1cccc([C@]2(O)CCCC[C@H]2CN(C)C)c1 (racemic) [Tramadol, (±)cis-2-[(dimethylamino)methyl]-1-(3-methoxyphenyl) cyclohexanol hydrochloride]
serious adverse effects (postoperative patients; loading doses up to 150 mg IV (Silvasti 2000)): not associated with any serious adverse effects
serious adverse effects (postoperative patients; mean cumulative doses 449 to 868.3 mg over 24, 36 and 48 h): no serious adverse effects were observed
half-life ([1]; iv): 5.6 h
absolute bioavailability ([1]; po): 90-100%
increase of elimination half-life [1]: approximately 2 fold
adverse observations (Beagle dogs; dog): convulsions for two Beagle dogs
toxicity in humans, conclusion from dog data (Beagle dogs): not toxic
patients reporting adverse events [2]: 25%
genotoxic potential [3]: no evidence of genotoxic potential
estimated absorption of the oral dose ([4]; 100 mg PO): 86-88%
AUC0-24 h ([4]; 100 mg i.v.): 3709 ± 977 ng·h/mL
Vd ([4]; 100 mg i.v.): 203 L
t1/2 ([4]; 100 mg i.v.): 5.2 h
CL/F (total clearance) ([4]; 100 mg i.v., hydrochloride): 467 ± 124 mL/min
CL/F (total clearance) ([4]; 100 mg i.v., listed as tramadol, hydrochloride): 710 ± 174 mL/min
time to peak serum concentration (tmax) ([4]; 100 mg oral dosing): approximately 2 hours
AUC0-24 h ([4]; 100 mg p.o.): 2488 ± 774 ng·h/mL
Cmax ([4]; 100 mg p.o.): 280 ± 49 ng/mL
Vd ([4]; 100 mg p.o.): 306 L
t1/2 ([4]; 100 mg p.o.): 5.1 h
CL/F (total clearance) ([4]; 100 mg p.o., hydrochloride): 710 ± 174 mL/min
CL/F (total clearance) ([4]; 100 mg p.o., listed as tramadol, hydrochloride): 467 ± 124 mL/min
absolute bioavailability of the oral dose ([4]; 100 mg, comparison of AUC values, hydrochloride): 68±13% and 68%
distribution half-life in the initial phase ([4]; after IV administration): 0.31 ± 0.17 h
half-life of slower distribution phase ([4]; after IV administration): 1.7 ± 0.4 h
first pass metabolism ([4]; estimated): ~20%
major adverse events ([5]; 100 mg IV every 6 hours, 48 hours): nausea and vomiting, followed by pruritus
tolerability ([5]; 100 mg QID, patients with both high and low BMI): well tolerated
Morphine usage, Mean ([5]; 1st dose Tramadol at wound closure, First 24 hours): 10.57 mg
Morphine usage, Mean ([5]; 1st dose Tramadol at wound closure, In 48 hours): 12.98 mg
Morphine usage, Mean ([5]; 1st dose Tramadol at wound closure, Loading dose): 4.05 mg
Morphine usage, Mean ([5]; 1st dose Tramadol at wound closure, Second 24 hours): 3.79 mg
Morphine usage, Mean ([5]; 1st dose Tramadol on demand, First 24 hours): 11.03 mg
Morphine usage, Mean ([5]; 1st dose Tramadol on demand, In 48 hours): 12.92 mg
Morphine usage, Mean ([5]; 1st dose Tramadol on demand, Loading dose): 3.69 mg
Morphine usage, Mean ([5]; 1st dose Tramadol on demand, Second 24 hours): 4 mg
PAIN Intensity Difference, Mean score (SD) ([5]; 1st dose at wound closure, 0.5 hours post first dose): 0 (0.09)
PAIN Intensity Difference, Mean score (SD) ([5]; 1st dose at wound closure, 1 hour post first dose): −0.3 (1.6)
PAIN Intensity Difference, Mean score (SD) ([5]; 1st dose at wound closure, 2 hours post first dose): −1.2 (1.8)
PAIN Intensity Difference, Mean score (SD) ([5]; 1st dose at wound closure, 3 hours post first dose): −2.2 (1.9)
PAIN Intensity Difference, Mean score (SD) ([5]; 1st dose at wound closure, 4 hours post first dose): −2.6 (2.0)
PAIN Intensity Difference, Mean score (SD) ([5]; 1st dose at wound closure, 6 hours post first dose): −3.2 (2.1)
PAIN Intensity Difference, Mean score (SD) ([5]; 1st dose at wound closure, 9 hours post first dose): −2.7 (2.2)
PAIN Intensity Difference, Mean score (SD) ([5]; 1st dose at wound closure, 12 hours post first dose): −2.2 (2.0)
PAIN Intensity Difference, Mean score (SD) ([5]; 1st dose at wound closure, 18 hours post first dose): −2.2 (2.1)
PAIN Intensity Difference, Mean score (SD) ([5]; 1st dose at wound closure, 24 hours post first dose): −1.9 (1.5)
PAIN Intensity Difference, Mean score (SD) ([5]; 1st dose at wound closure, 30 hours post first dose): −1.6 (1.4)
PAIN Intensity Difference, Mean score (SD) ([5]; 1st dose at wound closure, 36 hours post first dose): −1.3 (1.4)
PAIN Intensity Difference, Mean score (SD) ([5]; 1st dose at wound closure, 42 hours post first dose): −1.7 (1.8)
PAIN Intensity Difference, Mean score (SD) ([5]; 1st dose at wound closure, 48 hours post first dose): −1.4 (1.5)
PAIN Intensity Difference, Mean score (SD) ([5]; 1st dose on demand, 0.5 hours post first dose): −0.1 (2.4)
PAIN Intensity Difference, Mean score (SD) ([5]; 1st dose on demand, 1 hour post first dose): −0.5 (2.8)
PAIN Intensity Difference, Mean score (SD) ([5]; 1st dose on demand, 2 hours post first dose): 0.2 (2.1)
PAIN Intensity Difference, Mean score (SD) ([5]; 1st dose on demand, 3 hours post first dose): 0.3 (2.3)
PAIN Intensity Difference, Mean score (SD) ([5]; 1st dose on demand, 4 hours post first dose): 0.3 (2.6)
PAIN Intensity Difference, Mean score (SD) ([5]; 1st dose on demand, 6 hours post first dose): 0.1 (2.8)
PAIN Intensity Difference, Mean score (SD) ([5]; 1st dose on demand, 9 hours post first dose): 0.8 (2.9)
PAIN Intensity Difference, Mean score (SD) ([5]; 1st dose on demand, 12 hours post first dose): 1.4 (2.0)
PAIN Intensity Difference, Mean score (SD) ([5]; 1st dose on demand, 18 hours post first dose): 1.2 (2.2)
PAIN Intensity Difference, Mean score (SD) ([5]; 1st dose on demand, 24 hours post first dose): 1.6 (1.8)
PAIN Intensity Difference, Mean score (SD) ([5]; 1st dose on demand, 30 hours post first dose): 1.9 (2.4)
PAIN Intensity Difference, Mean score (SD) ([5]; 1st dose on demand, 36 hours post first dose): 1.9 (2.1)
PAIN Intensity Difference, Mean score (SD) ([5]; 1st dose on demand, 42 hours post first dose): 2.1 (2.1)
PAIN Intensity Difference, Mean score (SD) ([5]; 1st dose on demand, 48 hours post first dose): 2.4 (2.3)
Time to first demand of rescue medication after the first dose of Tramadol, Mean ([5]; Tramadol at wound Closure group): 2.5 (+/−3) hours and 2.52 hours
Time to first demand of rescue medication after the first dose of Tramadol, Mean ([5]; Tramadol on demand group): 2.11 h
Time to first demand of rescue medication after the first dose of Tramadol, Mean ([5]; Tramadol on demand group, listed as tramadol): 2.1 (+/−5.4) hours
total amount of morphine used ([5]; both groups): approximately 15 mg
rescue morphine used ([5]; first 24 hours, both groups): about 11 mg
rescue morphine used ([5]; the next day, both groups): 4 mg
fertility and teratogenic effects [6]: no safety concerns with respect to fertility or teratogenic effects
doses with behavioral/clinical signs and convulsions (rats and dogs): ≥ 25 mg/kg/day
NOAEL (in vivo; both, 6.5 mg/kg): 26 mg/kg/day
AUC(0-t) (in vivo; female): 1520 ng·h/mL
Cmax (in vivo; female): 1530 ng/mL
AUC(0-t) (in vivo; male): 1210 ng·h/mL
Cmax (in vivo; male): 1280 ng/mL
AUC [7]: 2177 ± 722 ng·h/mL
Cmax [7]: 274 ± 75 ng/mL
Tmax [7]: 1.6 ± 0.5 h
t1/2 [7]: 5.9 ± 0.7 h
carcinogenic potential (mice and rats): no evidence of carcinogenic potential
seizure ([8]; 200 mg IV administered over 5 minutes): No seizures were observed
seizure ([8]; 300 mg IV delivered over 2.5 minutes): seizure was observed
seizure ([8]; 700 mg IV administered over 1 minute): seizure was observed
ratings of feel drug effect compared to placebo ([8]; IV over 5 minutes): significantly increased ratings
ratings of liking / ARCI-MBG scale ([8]; tramadol 100 and 200 mg IV, morphine 10 and 20 mg IV, over 5 minutes): neither dose of tramadol increased ratings

Source: US10406122B2 (priority 2011, dated 2019)
